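Each compound was tested at five concentrations against cells in 96-well plates for 48 hours. TGI denotes the concentration required for complete inhibition of growth.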
How the values were obtained:
Assay in all cases: growth of human tumour cells (NCI), 48 h
[1] = system: HOP-92 NSCLC
[2] = system: CAKI-1 renal
[3] = system: OVCAR-3 ovarian
[4] = system: T-47D breast
[5] = system: MDA-MB-435
[6] = system: M14 melanoma
[7] = system: 786-0 renal
[8] = system: SK-MEL-2 melanoma
[9] = system: OVCAR-4 ovarian
[10] = system: SF-268 CNS
[11] = system: LOX IMVI melanoma

Row | SMILES | TGI [1] [µM] | TGI [2] [µM] | TGI [3] [µM] | TGI [4] [µM] | TGI [5] [µM] | TGI [6] [µM] | TGI [7] [µM] | TGI [8] [µM] | TGI [9] [µM] | TGI [10] [µM] | TGI [11] [µM]
1 | CC(C)OP(=O)(OC(C)C)C(C(F)(F)F)C(F)(F)F | > 100 | > 100 | > 100 | > 100 | > 100 | > 100 | > 100 | > 100 | > 100 | > 100 | > 100
2 | Cc1csc2c(P(=O)(OC(C)C)OC(C)C)c(-c3ccccc3)cn12 | 33.5 | 43.4 | 28.2 | 16.2 | 37.7 | 34.7 | 30.7 | 32.5 | 33 | 32 | 27.3
3 | O=C1CCc2c3c(c4c([nH]c5ccccc54)c2CC1)C(=O)NC3=O | 82 | 21.2 | > 100 | 6.01 | 12.3 | 44.6 | > 100 | 17.1 | 13.1 | > 100 | 21
4 | CCN(CC)CCn1ncc2ccc3c(c(=O)c4cccnc4n3CCN(CC)CC)c21 | 4.37 | 9.71 | 4.12 | > 9.48 | 1.94 | 2.79 | 4.6 | 3.51 | 2.87 | 4.66 | > 6.79
5 | CCCCc1ccc(Nc2nc3c(ncn3C3OC(COC(C)=O)C(OC(C)=O)C3OC(C)=O)c(=O)[nH]2)cc1 (configuration not stated) | 30.4 | > 100 | 31.6 | 30 | 34.5 | 41.2 | 32 | 31 | 52.9 | 37.7 | 36
6 | Cc1ccnc(NS(=O)(=O)c2ccc(NC(=O)c3ccc4nc5ccccc5c(Nc5ccc(S(=O)(=O)Nc6nccc(C)n6)cc5)c4c3)cc2)n1 | 55.4 | > 100 | 95.6 | > 100 | > 100 | > 100 | > 100 | 39.5 | > 100 | > 100 | > 100
7 | O=C1C=C2S[C@H]3C[C@]2(C=C1Br)c1c(c(O)c2c4c1=NCCC=4C=N2)N3 | 2.28 | 3.07 | 1.12 | 0.89 | 0.305 | 2.01 | 2.14 | 1.39 | 0.985 | 2.91 | 1.27
8 | C=CCCCCOC1C=CC(OC(C)=O)C(COC(C)=O)O1 (configuration not stated) | > 100 | > 100 | > 100 | > 100 | > 100 | > 100 | > 100 | > 100 | > 100 | > 100 | > 100
9 | O=[N+]([O-])c1cc2n[nH]nc2c2nonc12 | > 100 | 77.7 | 95.1 | > 100 | 30.1 | 47.4 | > 100 | > 100 | > 100 | > 100 | > 100
10 | O=C(CC(=O)c1ccncc1)c1ccccc1 | > 100 | > 100 | > 100 | > 100 | > 100 | > 100 | > 100 | > 100 | > 100 | > 100 | > 100
11 | COC(=O)N1CC[C@@H]2CCC=C(c3cccc4c3OCO4)[C@@H]21 | > 100 | > 100 | > 100 | > 100 | > 100 | > 100 | > 100 | > 100 | > 100 | > 100 | > 100
12 | COc1ccc2nc(-c3ccc(OC(=O)N(C)C)cc3)cn2c1 | > 100 | > 100 | > 100 | > 100 | > 100 | > 100 | > 100 | > 100 | > 100 | > 100 | > 100
13 | CCOC(=O)C(Cc1ccc2c(c1)CCC2)(Cc1ccc2c(c1)CCC2)C(=O)OCC | > 100 | > 100 | > 100 | > 100 | > 100 | > 100 | > 100 | > 100 | > 100 | > 100 | > 100
14 | COc1ccc(C2CCc3nc4nc(N)nc(N)c4cc3C2)cc1 (configuration not stated) | 9.31 | > 100 | 43.9 | 44.7 | 78.2 | > 100 | 17 | 42.3 | 67.4 | > 100 | 30
15 | CCOC(=O)C(SCCO)C(C(=O)OCC)n1ccc(N)nc1=O (configuration not stated) | > 100 | > 100 | > 100 | > 100 | > 100 | > 100 | > 100 | > 100 | > 100 | > 100 | > 100
16 | NS(=O)(=O)c1nnc(NC(=O)CCC(=O)O)s1 | > 100 | > 100 | > 100 | > 100 | > 100 | > 100 | > 100 | > 100 | > 100 | > 100 | > 100
17 | CCCCCCCCCc1cc(O)c(O)cc1CCCCCCCCC | > 10 | > 10 | > 10 | > 10 | > 10 | > 10 | > 10 | > 10 | > 10 | > 10 | > 10
18 | COc1cc2c(cc1C)NC(=O)/C2=C/c1c(Cl)[nH]c2cc(C)c(OC)cc12 | 23.7 | 21.2 | 8.6 | 25.8 | 8.49 | 13.7 | 18.2 | 22.1 | 18 | 18.7 | 15.7
19 | CC1=CC(c2ccccc2)OP1(=O)c1ccccc1 (configuration not stated) | > 100 | > 100 | > 100 | > 100 | > 100 | > 100 | > 100 | > 100 | > 100 | > 100 | > 100

Row | SMILES | TGI [1] [µM] | TGI [2] [µM] | TGI [3] [µM] | TGI [4] [µM] | TGI [5] [µM] | TGI [6] [µM] | TGI [7] [µM] | TGI [8] [µM] | TGI [9] [µM] | TGI [10] [µM] | TGI [11] [µM]
20 | COCCc1c(C)c(C#N)c2n(C)c3ccccc3n2c1=O | > 10 | > 10 | > 10 | > 10 | > 10 | > 10 | > 10 | > 10 | > 10 | > 10 | > 10
21 | NS(=O)(=O)c1ccc(NNC(=O)c2cccc3c(=O)c4ccccc4[nH]c23)cc1 | > 100 | > 100 | > 100 | > 100 | > 100 | > 100 | > 100 | > 100 | > 100 | > 100 | 89
22 | CCOC(=O)c1ccc(N=C2SC(=S)N(c3ccc(F)cc3)C2=Nc2ccc(C(=O)OCC)cc2)cc1 | 26 | 37.8 | > 53.7 | 22.7 | 40.7 | 25.6 | 31.6 | 35 | 33.4 | > 37.6 | 17.9
23 | CCN(CC)CCN1c2ccccc2Sc2ccc3ccccc3c21 | 12.8 | 22.7 | 24.6 | 19.1 | 21.2 | 8.52 | 23.9 | 27.9 | 17 | 35.1 | 21.4
24 | c1ccc(Cc2cccc3cc(-c4ccc(-c5ccccc5)cc4)[nH]c23)cc1 | > 100 | > 100 | > 100 | > 100 | > 100 | > 100 | > 100 | > 100 | > 100 | > 100 | > 100
25 | O=C(N/N=C(/COc1cccc(Cl)c1)N=Cc1ccncc1)c1ccncc1 | > 100 | > 100 | > 100 | > 100 | > 100 | > 100 | > 100 | > 100 | > 100 | > 100 | > 100
26 | CC1=C(C)C(=O)OC(C(C)(O)C2(O)CCC3(O)C4CC(Cl)C5(O)C(O)C=CC(=O)C5(C)C4CCC32C)C1 (configuration not stated) | > 100 | > 100 | > 100 | > 100 | > 100 | > 100 | > 100 | > 100 | > 100 | > 100 | 46.4
27 | CCN(CC)CC(O)c1ccc2ccc3ccccc3c2c1 (configuration not stated) | 31.3 | 26.6 | 29.1 | 37.7 | 31.3 | 30.9 | 25.6 | 30.9 | 35.3 | 34.7 | 35.5
28 | O=C(CSc1nc2ccc(I)cc2c(=O)n1Cc1ccccc1)N/N=C/c1ccccc1 | 34 | 23 | 33.6 | 79.9 | > 100 | > 100 | 32.6 | 35.6 | > 100 | 32.4 | > 100
29 | CN1CN(c2ccccc2)C2(CCNCC2)C1=O | > 100 | > 100 | > 100 | > 100 | > 100 | > 100 | > 100 | > 100 | > 100 | > 100 | > 100
30 | CC(C)(C)OC(=O)N1C(C2=COc3ccccc3O2)=COc2ccccc21 | 73.2 | > 100 | 47.2 | 50.4 | > 100 | > 100 | > 100 | 53.2 | > 100 | 64.4 | 37.3
31 | C=CCN1CCC(OC(=O)C(O)(/C=C\CC)C2CCCC2)CC1 (configuration not stated) | > 100 | > 100 | > 100 | > 100 | > 100 | > 100 | > 100 | > 100 | > 100 | > 100 | > 100
32 | COC(=O)C12CCC(C(=O)OC)(Cc3c(c4ccccc4n3S(=O)(=O)c3ccccc3)C1)C2=O (configuration not stated) | > 100 | > 100 | > 100 | > 100 | > 100 | > 100 | > 69.6 | > 100 | > 100 | > 100 | > 100
33 | O=c1oc2ncccc2n1Cc1ccc([N+](=O)[O-])cc1 | > 100 | > 100 | > 100 | > 100 | > 100 | > 100 | > 100 | > 100 | > 100 | > 100 | > 100
34 | CCCCC1Cc2cc(O)ccc2-c2n1c1cc(O)ccc1[n+]2C (configuration not stated) (tested in a mixture with another compound) | 73.8 | > 100 | 98.7 | > 100 | 59.6 | > 100 | > 100 | > 100 | 97.6 | > 59.5 | > 100
35 | CCN(CC)CCNc1ccc([N+](=O)[O-])c2nc3ccccc3c(N)c12 | 5.84 | > 10 | 5.13 | > 10 | 1.67 | 1.67 | 2.04 | 0.955 | 1.48 | 3.79 | 1.61
36 | Cc1c2c(c(C)c3c[n+](C)ccc13)Oc1ccccc1O2 | 99.8 | > 100 | 17.5 | 25.7 | 34.1 | > 59.7 | > 100 | 41.2 | 28.2 | 11.8 | > 71.1
37 | Oc1c(C(O)(c2ccccc2)c2ccc3ccccc3c2O)ccc2ccccc12 | 24.1 | 33.8 | 30.8 | 32.5 | 40.6 | 31 | > 69 | 26.4 | > 47.8 | 28.4 | 31.3

Reference: PubChem BioAssay (NCI)
